# Reference: patent publication US8440199B2, “Methods for mobilizing mesenchymal stem cells in a patient” (Imperial Innovations Limited, priority 2007, dated 2013)
# Experiments:
# EPCs [1] = test: Circulating CFU-EPC in blood; type: in vivo, mice; conditions: FIG. 20c
# EPCs [2] = test: In situ perfusion of mouse hind limb, CFU-EPC in perfusate; type: in vivo, mice; conditions: for EPC mobilization from the bone marrow: FIG. 21c
# SPCs [3] = test: In situ perfusion of mouse hind limb, CFU-SPC in perfusate; type: in vivo, mice; conditions: for SPC mobilization from the bone marrow: FIG. 21d
# Description: a, overview of procedures set up for identifying the direct mobilization of progenitor cells from the femoral bone marrow. […] 24 hours after the last injection, mice underwent perfusion of the right hind limb. CXCR4 antagonist (AMD3100 0.1 mM, closed bars) or vehicle (PBS, open bars) were then infused directly into the femoral artery for 10 minutes. The hind limb was then perfused for a further 50 minutes to allow collection of b, CFU-HPC; c, CFU-EPC; or d, CFU-SPC; via the femoral vein. CFU-HPC, CFU-EPC, and CFU-SPC are shown as total number of colonies collected in the perfusate. n=5-8 mice per group. Data: means±s.e.m. *: P<0.05, **: P<0.01, ***: P<0.001 between selected groups.
# (§3) 24 hours after the last injection, mice were administered a CXCR4 antagonist (AMD3100, 5 mg/kg i.p), KC (30 μg/kg i.v.) or vehicle and blood was collected via cardiac puncture 60 minutes later for enumeration of circulating leukocyte, HPC, EPC, and stromal progenitor cell levels.
# (§4) On day 5 following pre-treatment of growth factors, mice were anaesthetized and the femoral artery and vein exposed. The hind limb was isolated by occlusion of the external iliac artery, superficial epigastric and muscular branch. Polyethylene cannulae (Portex, London, UK) were immediately inserted into the femoral artery and vein as previously described (Martin et al., 2003; 2006; Wengner et al., 2008). Perfusion buffer was infused via the arterial cannula and removed from the venous cannula using a Minipuls peristaltic pump (Anachem, Luton, UK). The hind limb was perfused for an initial 2 minutes to remove remaining blood from the vasculature and then perfused for a further 60 min with vehicle alone or the CXCR4 antagonist (AMD3100, 0.1 mM), infused over the first 10 minutes using an infusion/withdrawal pump (Harvard Instruments, U.K.).
# (§5) The perfusate was centrifuged and re-suspended in DMEM+20% FBS. In some experiments citrated blood was obtained via cardiac bleed and lysed for red blood cells. Bone marrow and perfusate cytospins, and blood smears were stained using DiffQuik for the enumeration of mononuclear cells, eosinophils, and neutrophils. Bone marrow, perfusate and lysed blood were then used for assays outlined below to enumerate HPCs (CFU-HPC), EPCs (CFU-EPC), SPCs (CFU-F).
# (§6) 5×10^5 cells were added to Mesencult media including supplements (Stemcell Technologies). Dishes were incubated for 7 days before media was changed, and then incubated for a further 14 days before the enumeration of SPC colonies (CFU-F).
# (§7) The total number of colony forming units mobilized was calculated according to the number of colonies per plate×by the total number of leukocytes mobilized/number of cells seeded.
# SPCs [4] = test: CFU-SPC bone marrow frequency; type: in vivo, mice; conditions: treated over 4 days, compared to controls, FIG. 22c
# Description: 24 hours after the last injection, bone marrow was aspirated for the enumeration of a, CFU-HPC bone marrow frequency; b, CFU-EPC bone marrow frequency; and c, CFU-SPC bone marrow frequency.
# (§8) Female BALB/c mice were purchased from Harlan (Oxford, United Kingdom). […] 24 hours after the last injection, mice were administered a CXCR4 antagonist (AMD3100, 5 mg/kg i.p), KC (30 μg/kg i.v.) or vehicle and blood was collected via cardiac puncture 60 minutes later for enumeration of circulating leukocyte, HPC, EPC, and stromal progenitor cell levels.
# as §5, §6
# EPCs [5] = test: In vitro chemotaxis of bone marrow EPCs towards SDF-1α; type: cell-based; conditions: bone marrow cells of mice treated 4 days; 30 nM SDF-1α, FIG. 23e, 23g
# Description: Bone marrow was aspirated on day 5 and harvested cells were used to determine a, SDF-1α levels in bone marrow supernatant as determined by ELISA; b, % of bone marrow Lin^− Sca-1^+ cells expressing CXCR4; and c, % of bone marrow CD34^+ VEGFR2^+ cells expressing CXCR4. Harvested cells were also utilized in the following chemotaxis assays: d, number of HPCs; and e, EPCs undergoing chemotaxis towards 30 nM SDF-1α. Cells taken from bone marrow of mice treated with G-CSF (closed bars) or vehicle (PBS, open bars). f, number of HPCs; and g, EPCs undergoing chemotaxis towards 30 nM SDF-1α.
# CXCR2 = test: Flow cytometry of CXCR2 expression on bone marrow neutrophils; type: in vivo; conditions: VEGF-treated mice, FIG. 24d
# Description: (§1) For flow cytometric analysis, cells were re-suspended in FACS buffer. To identify neutrophils in the bone marrow, surface expression of the granulocyte marker Ly-6G/Ly6C (Gr-1) was determined. Neutrophils were identified as Gr-1^high positive cells with a characteristic high side scatter profile. HPCs residing in the BM were selected as being negative for lineage (Lin^−) markers: CD3e, CD11b, CD45R, Ly-76, and Gr-1 and positive for Sca-1 (Lin^− Sca-1^+ cells) (Gerber et al., 2002; Uchida, et al., 1997). EPCs residing in the BM were selected as being positive for both CD34 and VEGFR2 (CD34^+ VEGFR2^+ cells) (Asahara et al., 1997; Yoon et al., 2005). Furthermore, neutrophils were stained for the surface expression of CXCR2, whilst Lin^− Sca-1^+ cells and CD34^+ VEGFR2^+ cells were stained for the cell surface expression of CXCR4. Samples were then washed and then quantified on a FACSAria cell sorter (BD Biosciences, Oxford, United Kingdom) and analysed using FACSDiva software.
# neutrophils [6] = conditions: VEGF-treated mice, KC 30 nM, FIG. 24e
# Description: Bone marrow-derived neutrophils were tested for migration towards KC (30 nM) using 3 μm pore sized transwell chemotaxis plates as previously described (Wengner et al., 2008). To measure HPC and EPC migration towards SDF-1α, murine bone marrow cells (2×10^6 cells) were placed in the upper chamber of transwell inserts (5 μm pore size Corning). These in turn were placed in individual wells of a 24 well cell culture plate with 30 nM SDF-1α added. Chambers were incubated for 4 hours at 37° C. and migrated cells were then placed in methocult or EPC colony media as described above for the enumeration of CFU-HPC and CFU-EPC respectively.
# neutrophils [7] = test: Leukocyte counts of bone marrow; type: in vivo, mice; conditions: treated 4 days, compared to controls, FIG. 24f
# Description: 24 hours later these mice underwent perfusion of the right hind limb. CXCR4 antagonist (AMD3100 0.1 mM, closed bars) or vehicle (PBS, open bars) were then infused directly into the femoral artery for 10 minutes. The hind limb was then perfused for a further 50 minutes to allow collection of a, neutrophils via the femoral vein. […] The hind limb was again perfused for a further 50 minutes to allow b, collection of neutrophils.
# The perfusate was centrifuged and re-suspended in DMEM+20% FBS. […] Bone marrow and perfusate cytospins, and blood smears were stained using DiffQuik for the enumeration of mononuclear cells, eosinophils, and neutrophils.
# HPC colonies = conditions: colonies grown from bone marrow of treated mice, FIGS. 25a, 25b
# Description: a, number of cells per colony; and b, mean colony area; of CFU-HPC grown for […] in methocult.
# Mobilized cells were incubated for 11 days before quantification.
# Lin^− Sca-1^+ HPCs = test: PI staining, cell cycle status of Lin- Sca-1+ HPCs; type: in vivo, mice; conditions: treated 4 days, FIG. 25c
# Description: as §1, with “Furthermore, neutrophils were stained for the surface expression of CXCR2, whilst Lin^− Sca-1^+ cells and CD34^+ VEGFR2^+ cells were stained for the cell surface expression of CXCR4.” left out
# (§2) Lin^− Sca-1^+ cells and CD34^+ VEGFR2^+ cells were analysed to determine their cell cycling status using a propidium iodide (PI) stain. […] A dotplot of PI-Width against PI-Area was recorded. Aggregates of cells were detected as cells having a larger PI-W profile and were not included in the gate. […] To calculate the percentage of cells undergoing active cell cycling, a marker was set to exclude the G0/G1 peak and the percentage of cells in S/G2/M was calculated.
# CD34^+ VEGFR2^+ EPCs = test: PI staining, cell cycle status of CD34+ VEGFR2+ EPCs; type: in vivo, mice; conditions: treated 4 days, FIG. 25d
# Description: as §1, with “Furthermore, neutrophils were stained for the surface expression of CXCR2, whilst Lin^− Sca-1^+ cells and CD34^+ VEGFR2^+ cells were stained for the cell surface expression of CXCR4.” left out
# as §2
# neutrophils [8] = conditions: VEGF pre-treatment 4 days, KC 30 μg/kg i.v., 60 minutes, FIG. 24c
# Description: (§9) 24 hours later these mice underwent perfusion of the right hind limb. CXCR4 antagonist (AMD3100 0.1 mM, closed bars) or vehicle (PBS, open bars) were then infused directly into the femoral artery for 10 minutes. The hind limb was then perfused for a further 50 minutes to allow collection of a, neutrophils via the femoral vein. […] The hind limb was again perfused for a further 50 minutes to allow b, collection of neutrophils. […] Data: mean±s.e.m. *: P<0.05, ***: P<0.001 between selected groups.
# as §8, §5
# HPCs [9] = test: Circulating CFU-HPC in blood; conditions: agent alone (AMD3100 5 mg/kg i.p., blood at 60 min; G-CSF or VEGF once daily for 4 days), FIG. 20b
# Description: a, Experimental protocol. […] 24 hours after the last injection, mice were administered a CXCR4 antagonist (AMD3100 5 mg/kg i.p, closed bars) or vehicle (PBS, open bars). 60 minutes later, blood was taken for analysis of circulating: b, CFU-HPC; c, CFU-EPC; and d, CFU-SPC. CFU-HPC, CFU-EPC, and CFU-SPC are shown as number of colonies per ml blood. n=5-8 mice per group. Data: means±s.e.m. *: P<0.05, **: P<0.01, ***: P<0.001 between selected groups.
# as §3
# In some experiments citrated blood was obtained via cardiac bleed and lysed for red blood cells. […] Bone marrow, perfusate and lysed blood were then used for assays outlined below to enumerate HPCs (CFU-HPC), EPCs (CFU-EPC), SPCs (CFU-F).
# 5×10^4 cells were added to Methocult medium (Stem cell technologies) supplemented with specific cytokines and growth factors to enable formation of CFU-HPC. Mobilized cells were incubated for 11 days before quantification.
# as §7
# neutrophils [10] = test: Neutrophil mobilization, in situ perfusion of hind limb; conditions: VEGF (50 nM) infused acutely with CXCR4 antagonist, FIG. 24b
# Description: as §9
# On day 5 following pre-treatment of growth factors, mice were anaesthetized and the femoral artery and vein exposed. The hind limb was isolated by occlusion of the external iliac artery, superficial epigastric and muscular branch. […] Perfusion buffer was infused via the arterial cannula and removed from the venous cannula using a Minipuls peristaltic pump (Anachem, Luton, UK). The hind limb was perfused for an initial 2 minutes to remove remaining blood from the vasculature and then perfused for a further 60 min with vehicle alone or the CXCR4 antagonist (AMD3100, 0.1 mM), infused over the first 10 minutes using an infusion/withdrawal pump (Harvard Instruments, U.K.).
# The perfusate was centrifuged and re-suspended in DMEM+20% FBS.
# HPCs [11] = test: In situ perfusion of mouse hind limb, CFU-HPC in perfusate; conditions: for HPC mobilization from the bone marrow: FIG. 21b
# Description: 24 hours after the last injection, mice underwent perfusion of the right hind limb. […] The hind limb was then perfused for a further 50 minutes to allow collection of b, CFU-HPC; c, CFU-EPC; or d, CFU-SPC; via the femoral vein. CFU-HPC, CFU-EPC, and CFU-SPC are shown as total number of colonies collected in the perfusate. n=5-8 mice per group. Data: means±s.e.m. *: P<0.05, **: P<0.01, ***: P<0.001 between selected groups.
# Female BALB/c mice were purchased from Harlan (Oxford, United Kingdom).
# as §4
# The perfusate was centrifuged and re-suspended in DMEM+20% FBS. […] Bone marrow, perfusate and lysed blood were then used for assays outlined below to enumerate HPCs (CFU-HPC), EPCs (CFU-EPC), SPCs (CFU-F).
# 5×10^4 cells were added to Methocult medium (Stem cell technologies) supplemented with specific cytokines and growth factors to enable formation of CFU-HPC. Mobilized cells were incubated for 11 days before quantification. Further characteristics of CFU-HPC colonies were obtained on day 12, namely the mean number of cells in each colony, and the mean colony area. The mean colony area (mm^2) was determined by image analysis using Scion Image analysis program (NIH). The cell number was determined by diluting colonies grown in Methocult into DMEM (to disperse the methylcellulose) and aspirating the colonies into a single cell suspension before obtaining a cell count.
# as §7
# [12] = tested on: endothelial progenitor cells (EPC); test: Example 1: EPC mobilisation, hind limb bone marrow perfusion and circulating blood, CFU-EPC assay; conditions: G-CSF or VEGF 2.5 μg on 4 consecutive days, then AMD3100; perfusate and blood, FIGS. 5-8
# Description: 24 hours after the last injection, mice were administered a CXCR4 antagonist (AMD3100, 5 mg/kg i.p), or vehicle and blood was collected via cardiac puncture 1 hour later for enumeration of circulating leukocyte, HPC, EPC and MSC levels.
# On day 5, mice were anaesthetized with urethane (25% 0.2 ml i.p.) and the femoral artery and vein exposed. The hind limb was isolated by occlusion of the external iliac artery, superficial epigastric and muscular branch with 5/0 braided silk suture. Polyethylene cannulae (0.61 mm OD, Portex, London, UK) were immediately inserted into the femoral artery and vein and tied in place with 5/0 braided silk suture. Perfusion buffer (modified Krebs-Ringer bicarbonate buffer) at 37° C. was infused (0.15 ml/min) via the arterial cannula and removed from the venous cannula using a Minipuls peristaltic pump (Anachem, Luton, UK). The hind limb was perfused for an initial 10 minutes to remove remaining blood from the vasculature and then perfused for a further 60 min with vehicle alone or AMD3100, a CXCR4 antagonist (0.1 mM, Sigma UK) infused over the first 10 minutes using an infusion/withdrawal pump (Harvard Instruments, U.K.).
# The perfusate was collected and centrifuged and the cell pellet re-suspended in Dulbecco's modified eagles medium (DMEM) with 20% fetal bovine serum (FBS). A total cell count was performed before the perfusate was lysed for red blood cells, re-suspended again in DMEM (20% FBS) and used for assays outlined below to enumerate haematopoietic progenitor cells (CFU-HPC), endothelial progenitor cells (CFU-EPC), and leukocyte populations.
# In some experiments blood was taken to enumerate HPCs, EPCs and leukocytes. A total cell count was performed on citrated blood before being lysed for red blood cells and re-suspended in DMEM (20% FBS).
# Assay was performed in duplicate. Dishes were incubated for 7 days before media was changed, and then incubated for a further 14 days before the enumeration of late outgrowth endothelial progenitor cells. Early outgrowth endothelial progenitor cells were enumerated on day 5.
# In each of the above assays, the total number of colony forming units mobilised is calculated according to the number of colonies per plate×by the total number of leukocytes mobilized/number of cells seeded.
# Mice were anaesthetised and the femoral artery and vein was cannulated such that the femoral bone marrow could be perfused (Martin et al, (2006) Br. J. Haem. 134: 326-329). […]
# Mice were injected i.p. with the CXCR4 antagonist, AMD3100, (or vehicle control) and 1 h later the mice were killed. Blood was collected by cardiac puncture and stem cell numbers in the blood were determined. […]
# [13] = agent alone (CXCR4 antagonist 0.1 mM infused 10 min; G-CSF or VEGF pre-treatment 4 days)
# [14] = growth factor pre-treatment 4 days, then CXCR4 antagonist infused
substance,measurement,setting,value
VEGF,circulating numbers of EPCs,"EPCs [1]; agent alone (AMD3100 5 mg/kg i.p., blood at 60 min; G-CSF or VEGF once daily for 4 days)",increase in EPC numbers
same,circulating numbers of EPCs,"EPCs [1]; growth factor pre-treatment over 4 days, then CXCR4 antagonist AMD3100 5 mg/kg i.p.",more than additive increase in EPC numbers
same,EPC mobilization from the bone marrow,EPCs [2]; [13],significant EPC mobilization
same,"EPC mobilization, acute administration","EPCs [2]; growth factor (50 nM) infused into femoral artery for 10 minutes, alone, FIG. 31b",mobilized both HPCs and EPCs
same,EPC mobilization from the bone marrow,EPCs [2]; [14],an additive effect was observed for EPC mobilization
same,SPC mobilization from the bone marrow,SPCs [3]; [13],HPCs and SPCs were not mobilized
same,"SPC mobilization, acute administration","SPCs [3]; growth factor (50 nM) infused acutely, alone or in combination with CXCR4 antagonist, FIG. 31c","neither growth factor, when administered acutely or in combination with the CXCR4 antagonist led to mobilization of SPCs"
same,SPC mobilization from the bone marrow,SPCs [3]; [14],SPCs were mobilized
same,frequency/number of SPCs in the bone marrow,SPCs [4],no difference was observed
same,EPC chemotaxis towards SDF-1α,EPCs [5],had no effect on EPC migration
same,proportion of Gr-1+ bone marrow neutrophils expressing CXCR2,CXCR2,did not affect either the proportion of Gr-1^+ bone marrow neutrophils expressing CXCR2
same,ability of bone marrow neutrophils to migrate towards KC in vitro,neutrophils [6],did not affect
same,numbers of neutrophils in the bone marrow,neutrophils [7],significant reduction in absolute numbers of mature neutrophils
same,cellular content and size of HPC colonies,HPC colonies,significant increase in both their cellular content and size
same,percentage of Lin- Sca-1+ HPCs in S/G2/M phase of the cell-cycle,Lin^− Sca-1^+ HPCs,significant increase in the percentage of BM-HPCs
same,percentage of CD34+ VEGFR2+ EPCs in S/G2/M phase of the cell-cycle,CD34^+ VEGFR2^+ EPCs,did not alter the percentage of CD34^+ VEGFR2^+ EPCs in the S/G2/M phase
same,KC-induced mobilization of neutrophils in vivo,neutrophils [8],completely abrogated
same,circulating numbers of HPCs,HPCs [9],did not increase circulating numbers of HPCs
same,"suppression of neutrophil mobilization in response to the CXCR4 antagonist, acute administration",neutrophils [10],effect was not seen
same,reduction of HPC mobilization induced by infusion of the CXCR4 antagonist,"HPCs [11]; VEGF pre-treatment 4 days, then CXCR4 antagonist infused",75%
same,HPC mobilization from the bone marrow,"HPCs [11]; agent alone (CXCR4 antagonist 0.1 mM infused 10 min; G-CSF or VEGF pre-treatment 4 days), perfusate over 1 hour",HPCs and SPCs were not mobilized
same,"HPC mobilization, acute administration","HPCs [11]; growth factor (50 nM) infused into femoral artery for 10 minutes, alone, FIG. 31a",mobilized both HPCs and EPCs
same,HPC mobilization from the bone marrow,HPCs [11]; [14],almost completely suppressed HPC mobilization
same,EPC mobilization,[12],additive effect of AMD3100 and VEGF with respect to EPC mobilization
